How the values were obtained:
[1] = tested on: KARPAS-1106P (B-Cell Non-Hodgkin's Lymphoma); assay: combination Emax (second highest fraction inhibited in the dose matrix, 72 h); higher = more inhibition; extreme values may be limits of the assay
Outline: (§1)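 After 24 hours at 37°C and 5% CO2 in 1536-well plates, cells in DMEM/F12 or RPMI plus 10% FBS received two-drug dose matrices for 72 hours. Viability came from CellTiter-Glo 2.0 luminescence and was scaled as inhibition, anchored at 0 by vehicle wells and at 1 by blank wells. Combination Emax is taken as the second-highest inhibition in the matrix, and Bliss excess as the observed combination effect less EA + EB − EA·EB, with EA and EB the single-agent effects.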

[2] = tested on: LU-99A (Non-Small Cell Lung Carcinoma); assay: as above
Outline: as §1

[3] = tested on: SW1783 (Low Grade Glioma); assay: as above
Outline: as §1

[4] = tested on: HT-29 (Colorectal Carcinoma); assay: as above
Outline: as §1

[5] = tested on: HPAC (Pancreatic Carcinoma); assay: as above
Outline: as §1

[6] = tested on: DB (B-Cell Non-Hodgkin's Lymphoma); assay: as above
Outline: as §1

DSH1 (Bladder Carcinoma) = assay: as above
Outline: as §1

[7] = tested on: SUIT-2 (Pancreatic Carcinoma); assay: as above
Outline: as §1

[8] = tested on: NCI-H1299 (Non-Small Cell Lung Carcinoma); assay: as above
Outline: as §1

[9] = tested on: IHH-4 (Thyroid Gland Carcinoma); assay: Bliss excess, mean over the matrix (fraction); higher = more synergy
Outline: as §1

[10] = tested on: G-292-Clone-A141B1 (Osteosarcoma); assay: as above
Outline: as §1

CAL-78 (Chondrosarcoma) = assay: as above
Outline: as §1

RH-1 (Ewing's Sarcoma) = assay: as above
Outline: as §1

[11] = tested on: KM-H2 (Hodgkin's Lymphoma); assay: as above
Outline: as §1

[12] = tested on: MDA-MB-231 (Breast Carcinoma); assay: as above
Outline: as §1

[13] = tested on: 697 (B-Lymphoblastic Leukemia); assay: as above
Outline: as §1

[14] = tested on: CFPAC-1 (Pancreatic Carcinoma); assay: as above
Outline: as §1

[15] = tested on: MDA-MB-157 (Breast Carcinoma); assay: as above
Outline: as §1

ES7 (Ewing's Sarcoma) = assay: as above
Outline: as §1

J82 (Bladder Carcinoma) = assay: as above
Outline: as §1
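Wherever Bliss excess, mean over the matrix is given: after 72 h of two-drug dosing.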

## Cc1cc2ncnn2cc1Nc1ncc2c(n1)n(C1CCOCC1)c(=O)n2C [AZD7648] + C=CCn1c(=O)c2cnc(Nc3ccc(N4CCN(C)CC4)cc3)nc2n1-c1cccc(C(C)(C)O)n1 [AZD1775] (first compound max 10 µM, partner max 1 µM)
[1]
  combination Emax: 0.901
[2]
  combination Emax: 0.563
[3]
  combination Emax: 0.322
[4]
  combination Emax: 0.816
[5]
  combination Emax: 0.748
[6]
  combination Emax: 0.786
DSH1 (Bladder Carcinoma)
  combination Emax: 0.463
[7]
  combination Emax: 0.656
[8]
  combination Emax: 0.72
[9]
  Bliss excess: 0.0233
[10]
  Bliss excess: -0.0124
CAL-78 (Chondrosarcoma)
  Bliss excess: -0.0147
RH-1 (Ewing's Sarcoma)
  Bliss excess: 0.016
[11]
  Bliss excess: -0.0201
[12]
  Bliss excess: 0.0218
[13]
  Bliss excess: 0
[14]
  Bliss excess: 0.0525
[15]
  Bliss excess: 0.0003
ES7 (Ewing's Sarcoma)
  Bliss excess: -0.0044
J82 (Bladder Carcinoma)
  Bliss excess: -0.008

## CC1(C)CCC(CN2CCN(c3ccc(C(=O)NS(=O)(=O)c4ccc(NCC5CCOCC5)c([N+](=O)[O-])c4)c(Oc4cnc5[nH]ccc5c4)c3)CC2)=C(c2ccc(Cl)cc2)C1 [Venetoclax] + C1CN(CCC1(C(=O)N[C@@H](CCO)C2=CC=C(C=C2)Cl)N)C3=NC=NC4=C3C=CN4 [Capivasertib] (first compound max 1 µM, 7x7, partner max 3 µM)
[1]
  combination Emax: 0.492
[2]
  combination Emax: 0.312
[3]
  combination Emax: 0.342
[4]
  combination Emax: 0.254
[5]
  combination Emax: 0.148
[6]
  combination Emax: 0.941
DSH1 (Bladder Carcinoma)
  combination Emax: 0.416
[7]
  combination Emax: 0.129
[8]
  combination Emax: 0.171
[9]
  Bliss excess: -0.0187
[10]
  Bliss excess: -0.0701
CAL-78 (Chondrosarcoma)
  Bliss excess: -0.0387
RH-1 (Ewing's Sarcoma)
  Bliss excess: -0.0353
[11]
  Bliss excess: -0.0178
[12]
  Bliss excess: -0.0443
[13]
  Bliss excess: -0.0154
[14]
  Bliss excess: -0.0274
[15]
  Bliss excess: -0.0187
ES7 (Ewing's Sarcoma)
  Bliss excess: -0.0178
J82 (Bladder Carcinoma)
  Bliss excess: -0.0827

## NC1(C(=O)N[C@@H](CCO)c2ccc(Cl)cc2)CCN(c2ncnc3[nH]ccc23)CC1 [Capivasertib] + C[C@@H]1COCCN1C2=NC(=NC(=C2)C3(CC3)[S@](=N)(=O)C)C4=C5C=CNC5=NC=C4 [AZD6738] (first compound max 10 µM, 7x7, partner max 10 µM)
[1]
  combination Emax: 0.694
[2]
  combination Emax: 0.63
[3]
  combination Emax: 0.679
[4]
  combination Emax: 0.834
[5]
  combination Emax: 0.545
[6]
  combination Emax: 0.424
DSH1 (Bladder Carcinoma)
  combination Emax: 0.848
[7]
  combination Emax: 0.493
[8]
  combination Emax: 0.602
[9]
  Bliss excess: 0.0028
[10]
  Bliss excess: -0.0276
CAL-78 (Chondrosarcoma)
  Bliss excess: -0.0695
RH-1 (Ewing's Sarcoma)
  Bliss excess: -0.0098
[11]
  Bliss excess: -0.0181
[12]
  Bliss excess: -0.0598
[13]
  Bliss excess: -0.0173
[14]
  Bliss excess: -0.0224
[15]
  Bliss excess: -0.0365
ES7 (Ewing's Sarcoma)
  Bliss excess: -0.055
J82 (Bladder Carcinoma)
  Bliss excess: -0.065

## NC1(C(=O)N[C@@H](CCO)c2ccc(Cl)cc2)CCN(c2ncnc3[nH]ccc23)CC1 [Capivasertib] + Cn1cnc2c(F)c(Nc3ccc(Br)cc3Cl)c(C(=O)NOCCO)cc21 [Selumetinib] (first compound max 10 µM, 7x7, partner max 10 µM)
[1]
  combination Emax: 0.586
[2]
  combination Emax: 0.709
[3]
  combination Emax: 0.415
[4]
  combination Emax: 0.783
[5]
  combination Emax: 0.783
[6]
  combination Emax: 0.422
DSH1 (Bladder Carcinoma)
  combination Emax: 0.954
[7]
  combination Emax: 0.646
[8]
  combination Emax: 0.615
[9]
  Bliss excess: -0.0165
[10]
  Bliss excess: -0.0056
CAL-78 (Chondrosarcoma)
  Bliss excess: -0.0369
RH-1 (Ewing's Sarcoma)
  Bliss excess: 0.0148
[11]
  Bliss excess: -0.0084
[12]
  Bliss excess: -0.007
[13]
  Bliss excess: -0.165
[14]
  Bliss excess: 0.0351
[15]
  Bliss excess: -0.014
ES7 (Ewing's Sarcoma)
  Bliss excess: 0.0372
J82 (Bladder Carcinoma)
  Bliss excess: -0.021

## NC1(C(=O)N[C@@H](CCO)c2ccc(Cl)cc2)CCN(c2ncnc3[nH]ccc23)CC1 [Capivasertib] + CCN(CCO)CCCOc1ccc2c(Nc3cc(CC(=O)Nc4cccc(F)c4)[nH]n3)ncnc2c1 [AZD2811] (first compound max 10 µM, 7x7, partner max 1 µM)
[1]
  combination Emax: 0.502
[2]
  combination Emax: 0.559
[3]
  combination Emax: 0.469
[4]
  combination Emax: 0.427
[5]
  combination Emax: 0.395
[6]
  combination Emax: 0.635
DSH1 (Bladder Carcinoma)
  combination Emax: 0.668
[7]
  combination Emax: 0.177
[8]
  combination Emax: 0.364
[9]
  Bliss excess: 0.0289
[10]
  Bliss excess: 0.0116
CAL-78 (Chondrosarcoma)
  Bliss excess: 0.024
RH-1 (Ewing's Sarcoma)
  Bliss excess: 0.0222
[11]
  Bliss excess: -0.0195
[12]
  Bliss excess: -0.0154
[13]
  Bliss excess: -0.0593
[14]
  Bliss excess: 0.0281
[15]
  Bliss excess: 0.0354
ES7 (Ewing's Sarcoma)
  Bliss excess: -0.0354
J82 (Bladder Carcinoma)
  Bliss excess: -0.0018

## CC(=O)Nc1cccc(-n2c(=O)n(C3CC3)c(=O)c3c(Nc4ccc(I)cc4F)n(C)c(=O)c(C)c32)c1 [Trametinib] + Cc1nc(-c2cn3c(n2)-c2ccc(-c4cnn(C(C)(C)C(N)=O)c4)cc2OCC3)n(C(C)C)n1 [Taselisib] (first compound max 1 µM, 7x7, partner max 10 µM)
[1]
  combination Emax: 0.749
[2]
  combination Emax: 0.984
[3]
  combination Emax: 0.7
[4]
  combination Emax: 0.981
[5]
  combination Emax: 1
[6]
  combination Emax: 0.212
DSH1 (Bladder Carcinoma)
  combination Emax: 0.994
[7]
  combination Emax: 0.702
[8]
  combination Emax: 0.68
[9]
  Bliss excess: -0.0242
[10]
  Bliss excess: 0.0804
CAL-78 (Chondrosarcoma)
  Bliss excess: 0.0728
RH-1 (Ewing's Sarcoma)
  Bliss excess: 0.0194
[11]
  Bliss excess: 0.0338
[12]
  Bliss excess: 0.142
[13]
  Bliss excess: 0.117
[14]
  Bliss excess: 0.148
[15]
  Bliss excess: 0.0963
ES7 (Ewing's Sarcoma)
  Bliss excess: 0.0164
J82 (Bladder Carcinoma)
  Bliss excess: 0.0623
